Key:
Assay type in all cases: functional
RAW264.7 [1] = assay: Antiinflammatory activity in mouse RAW264.7 cells assessed as inhibition of H2O2-induced intracellular ROS production at 50 ug/ml measured after 24 hrs by DCFH-DA staining based fluorescence assay
RAW264.7 [2] = assay: Antiinflammatory activity in mouse RAW264.7 cells assessed as inhibition of LPS-induced NO production at 50 ug/ml measured after 24 hrs
RAW264.7 [3] = assay: Antiinflammatory activity in mouse RAW264.7 cells assessed as inhibition of LPS-induced TNFalpha secretion at 50 ug/ml measured after 24 hrs

Compound `COc1cc(CC2c3cc(O)c(O)c(OC)c3Oc3cc(O)c4c(c32)CCc2cc(O)ccc2-4)ccc1O` (stereo not drawn) has an inhibition at 50 µg/mL (RAW264.7 [1]) of 65%, an inhibition at 50 µg/mL (RAW264.7 [2]) of 65% and an inhibition at 50 µg/mL (RAW264.7 [3]) of 70%.

— ChEMBL document CHEMBL5244253, “Recent research progress on natural small molecule bibenzyls and its derivatives in Dendrobium species” (Eur J Med Chem, 2020)
